For orientation: IC50 means the point on the concentration scale where inhibition reaches its midpoint.

The values that follow come from ChEMBL document CHEMBL6078664, “Abietane Diterpenoids from the Rhizomes of Kaempferia roscoeana and Their Anti-Inflammatory Activities” (J Nat Prod, 2024).

Assay [1] relates to RAW264.7. In words: Antiinflammatory activity in LPS-induced mouse RAW264.7 cells assessed as inhibition of NO production preincubated for 1 hr followed by LPS stimulation and measured after 24 hrs by microplate reader based analysis. The assay is classed as functional, cell-based.
The subject of assay [2] is RAW264.7. Put plainly: Cytotoxicity against mouse RAW264.7 cells incubated for 24 hrs by MTT assay. It counts as functional, cell-based. To be noted: RAW264.7, 24 h.

For `CO[C@@H]1O[C@]23C=C(C(C)C)CC[C@]2(O)[C@]12CCCC(C)(C)[C@@H]2CC3`, the IC50 in assay [1] was 4.1 µM; in assay [2], over 50 µM.
The like results for `CC(C)C1=C[C@]23OC[C@@]4(CCCC(C)(C)[C@@H]4C[C@H]2O)[C@@]3(O)CC1` were, in that order, 20 µM and over 50 µM.
Consider `CC(C)[C@]1(O)C=C2[C@H](O)C[C@H]3C(C)(C)CCC[C@]3(C)[C@@]2(O)CC1`, for which the results for the IC50 in assay [1] and in assay [2] were 13.7 µM and over 50 µM, respectively.
As to `CC(C)C1=CC2=CC[C@H]3C(C)(C)CCC[C@]3(C=O)[C@@]2(O)CC1`, the IC50 in assay [1] was 4.3 µM; in assay [2], over 50 µM.
Taken in the same sequence, the figures for `CC(C)[C@]1(O)C=C2CC[C@H]3C(C)(C)CCC[C@]3(C)[C@@]2(O)CC1` were 3.6 µM and over 50 µM.
On to `CC(C)C1=C[C@@]23CC[C@H]4C(C)(C)CCC[C@]4([C@H](O)O2)[C@@]3(O)CC1`, for which the half-inhibitory concentration (IC50) in assay [1] and in assay [2] was over 50 µM in each case.
`CC(C)C1=C[C@@]23CC[C@H]4C(C)(C)CCC[C@]4(CO2)[C@@]3(O)CC1`: the 50% inhibitory concentration (IC50) in assay [1] came to 36.8 µM; in assay [2], 44.4 µM.
The like results for `C[C@@H]1C[C@H]2[C@@H]3CCC4=CC(=O)C=C[C@]4(C)[C@@]3(F)[C@@H](O)C[C@]2(C)[C@@]1(O)C(=O)CO` [DEXAMETHASONE] were, in that order, 0.3 µM and over 50 µM.
